Source: patent US20190159450A1, “PYRIDINE-BASED COMPOUND INCLUDING ISOXAZOLINE RING AND USE THEREOF AS HERBICIDE” (MOGHU RESEARCH CENTER LTD., priority 2016, published 2019)

Experiments:
Assay type in all cases: in vivo
[1] = test system: Abutilon theophrasti Medicus; test: Herbicidal activity test, post-weeds emergence treatment; settings: assessed after 2 to 3 weeks, 0: no effect, 10: complete death
Method: (§1) A rectangular plastic pot with a surface area of 300 cm^2 was filled with sandy loam soil and mixed soil at a ratio of 1:1, and four kinds of weeds including Quamoclit pennata, Abutilon theophrasti Medicus, and Aeschynomene indica, Xanthium strumarium were sown therein. In another pot made in the same way, three kinds of crop seeds including maize, wheat, and rice were sown. The pots were watered and one day later, a medicament was sprayed thereon. The spraying was performed by using a track sprayer (R&D Sprayer, USA) equipped with Teejet 8002EVS (Spraying Systems Co., USA) nozzle, and the spray amount was controlled to be 1000 L/ha. A spray solution was prepared by dissolving the compound of each example or a control material in acetone, and then, adding the same amount of 0.1% (v/v) tween 20 aqueous solution thereto. The spray amount was 200 g/ha. The pots were placed in a greenhouse in which the temperature was maintained at 25° C. to 30° C. during the day and 15° C. to 25° C. during the night, and was regularly watered. After 2 to 3 weeks from the spraying of the compounds or the control material, the efficacy and the damages on each weed and each crop were assessed according to the scale of 0-10 (0: no effect, 10: complete death) scale and the results are shown in Table 3 below.
(§2) Pots for crops and weeds were prepared in the same manner as in Experimental Example 1, and then, when the crops and the weeds were raised up to 2 weeks roughly on a third-leaf stage, the compounds and the control material were sprayed thereon in the same manner as described above. The spray amount was 200 g/ha. After 2 to 3 weeks from the spraying of the test substance or the control substance, the efficacy and the damages on each weed and each crop were assessed according to the scale of 0-10 (0: no effect, 10: complete death) scale.
(§3) Pots for crops and weeds were prepared in the same manner as the test method illustrated in Table 5, and four kinds of weeds selected from Quamoclit pennata, Abutilon theophrasti Medicus, and Aeschynomene indica, Xanthium strumarium were used. The spray amount was 200 g/ha for crops and 50 g/ha for weeds.

Xanthium strumarium [2] = test: as above; settings: assessed after 2 to 3 weeks, 0: no effect, 10: complete death
Method: as §1, §2, §3

Quamoclit pennata [3] = test: as above; settings: assessed after 2 to 3 weeks, 0: no effect, 10: complete death
Method: as §1, §2, §3

Aeschynomene indica [4] = test: as above; settings: assessed after 2 to 3 weeks, 0: no effect, 10: complete death
Method: as §1, §2, §3

[5] = test system: Abutilon theophrasti Medicus; test: Herbicidal activity test, pre-weeds emergence treatment; settings: assessed 2 to 3 weeks after spraying, scale 0-10 (0: no effect, 10: complete death)
Method: as §1
(§4) Pots for crops and weeds were prepared in the same manner as the test method illustrated in Table 3, and three kinds of weeds selected from Quamoclit pennata, Abutilon theophrasti Medicus, and Aeschynomene indica, Xanthium strumarium were used.

Xanthium strumarium [6] = test: as above; settings: assessed 2 to 3 weeks after spraying, scale 0-10 (0: no effect, 10: complete death)
Method: as §1, §4

Quamoclit pennata [7] = test: as above; settings: assessed 2 to 3 weeks after spraying, scale 0-10 (0: no effect, 10: complete death)
Method: as §1, §4

Aeschynomene indica [8] = test: as above; settings: assessed 2 to 3 weeks after spraying, scale 0-10 (0: no effect, 10: complete death)
Method: as §1, §4

wheat [9] = test: Herbicidal activity test, pre-weeds emergence treatment (crop damage); settings: assessed 2 to 3 weeks after spraying, scale 0-10 (0: no effect, 10: complete death)
Method: as §1, §4

maize [10] = test: as above; settings: assessed 2 to 3 weeks after spraying, scale 0-10 (0: no effect, 10: complete death)
Method: as §1, §4

rice [11] = test: as above; settings: assessed 2 to 3 weeks after spraying, scale 0-10 (0: no effect, 10: complete death)
Method: as §1, §4

wheat [12] = test: Herbicidal activity test, post-weeds emergence treatment (crop damage); settings: assessed after 2 to 3 weeks, 0: no effect, 10: complete death
Method: as §1, §2, §3

maize [13] = test: as above; settings: assessed after 2 to 3 weeks, 0: no effect, 10: complete death
Method: as §1, §2, §3

rice [14] = test: as above; settings: assessed after 2 to 3 weeks, 0: no effect, 10: complete death
Method: as §1, §2, §3

[15] = spray amount 50 g/ha for weeds, Table 6
[16] = spray amount 200 g/ha for crops, Table 6

## COC(=O)c1nc(C2CC(C(F)(F)F)=NO2)cc(N)c1Cl (centres unmarked) [Compound 39, methyl 4-amino-3-chloro-6-(3-trifluoromethyl-4,5-dihydroisoxazol-5-yl)picolinate]
[1]; spray amount 200 g/ha, Table 5
  ABUTH (Abutilon theophrasti Medicus) herbicidal efficacy, scale of 0-10: 3
Xanthium strumarium [2]; spray amount 200 g/ha, Table 5
  XANST (Xanthium strumarium) herbicidal efficacy, scale of 0-10: 10
Quamoclit pennata [3]; spray amount 200 g/ha, Table 5
  IPOAN (Quamoclit pennata) herbicidal efficacy, scale of 0-10: 4
Aeschynomene indica [4]; spray amount 200 g/ha, Table 5
  AESIN (Aeschynomene indica) herbicidal efficacy, scale of 0-10: 10
[5]; Table 3, 200 g/ha
  PRE ABUTH (Abutilon theophrasti Medicus), efficacy score: 4
Xanthium strumarium [6]; Table 3, 200 g/ha
  PRE XANST (Xanthium strumarium), efficacy score: 6
Quamoclit pennata [7]; Table 3, 200 g/ha
  PRE IPOAN (Quamoclit pennata), efficacy score: 6
Aeschynomene indica [8]; Table 3, 200 g/ha
  PRE AESIN (Aeschynomene indica), efficacy score: 8
Wheat [9]; Table 3, 200 g/ha
  PRE TRZAW (wheat), damage score: 0
Maize [10]; Table 3, 200 g/ha
  PRE ZEAMX (maize), damage score: 0
Rice [11]; Table 3, 200 g/ha
  PRE ORYSA (rice), damage score: 1
Wheat [12]; spray amount 200 g/ha, Table 5
  TRZAW (wheat) damage, scale of 0-10: 0
Maize [13]; spray amount 200 g/ha, Table 5
  ZEAMX (maize) damage, scale of 0-10: 0
Rice [14]; spray amount 200 g/ha, Table 5
  ORYSA (rice) damage, scale of 0-10: 0

## CC(C)COC(=O)c1nc(C2CC(Br)=NO2)cc(N)c1Cl (centres unmarked) [Compound 84, isobutyl 4-amino-6-(3-bromo-4,5-dihydroisoxazol-5-yl)-3-chloropicolinate]
[1]; [15]
  ABUTH (Abutilon theophrasti Medicus) herbicidal efficacy, scale of 0-10: 6
Xanthium strumarium [2]; [15]
  XANST (Xanthium strumarium) herbicidal efficacy, scale of 0-10: 10
Quamoclit pennata [3]; [15]
  IPOAN (Quamoclit pennata) herbicidal efficacy, scale of 0-10: 6
Aeschynomene indica [4]; [15]
  AESIN (Aeschynomene indica) herbicidal efficacy, scale of 0-10: 9
[5]; Table 4, 200 g/ha
  PRE ABUTH (Abutilon theophrasti Medicus), efficacy score: 4
Xanthium strumarium [6]; Table 4, 200 g/ha
  PRE XANST (Xanthium strumarium), efficacy score: 10
Quamoclit pennata [7]; Table 4, 200 g/ha
  PRE IPOAN (Quamoclit pennata), efficacy score: 5
Aeschynomene indica [8]; Table 4, 200 g/ha
  PRE AESIN (Aeschynomene indica), efficacy score: 10
Wheat [9]; Table 4, 200 g/ha
  PRE TRZAW (wheat), damage score: 0
Maize [10]; Table 4, 200 g/ha
  PRE ZEAMX (maize), damage score: 0
Rice [11]; Table 4, 200 g/ha
  PRE ORYSA (rice), damage score: 1
Wheat [12]; [16]
  TRZAW (wheat) damage, scale of 0-10: 0
Maize [13]; [16]
  ZEAMX (maize) damage, scale of 0-10: 0
Rice [14]; [16]
  ORYSA (rice) damage, scale of 0-10: 0

## Nc1cc(C2CC(Cl)=NO2)nc(C(=O)O)c1Cl (centres unmarked) [Compound 38, 4-amino-3-chloro-6-(3-chloro-4,5-dihydroisoxazol-5-yl)picolinic acid]
[1]; spray amount 200 g/ha, Table 5
  ABUTH (Abutilon theophrasti Medicus) herbicidal efficacy, scale of 0-10: 10
Xanthium strumarium [2]; spray amount 200 g/ha, Table 5
  XANST (Xanthium strumarium) herbicidal efficacy, scale of 0-10: 10
Quamoclit pennata [3]; spray amount 200 g/ha, Table 5
  IPOAN (Quamoclit pennata) herbicidal efficacy, scale of 0-10: 9
Aeschynomene indica [4]; spray amount 200 g/ha, Table 5
  AESIN (Aeschynomene indica) herbicidal efficacy, scale of 0-10: 10
[5]; Table 3, 200 g/ha
  PRE ABUTH (Abutilon theophrasti Medicus), efficacy score: 10
Xanthium strumarium [6]; Table 3, 200 g/ha
  PRE XANST (Xanthium strumarium), efficacy score: 10
Quamoclit pennata [7]; Table 3, 200 g/ha
  PRE IPOAN (Quamoclit pennata), efficacy score: 10
Aeschynomene indica [8]; Table 3, 200 g/ha
  PRE AESIN (Aeschynomene indica), efficacy score: 10
Wheat [9]; Table 3, 200 g/ha
  PRE TRZAW (wheat), damage score: 2
Maize [10]; Table 3, 200 g/ha
  PRE ZEAMX (maize), damage score: 0
Rice [11]; Table 3, 200 g/ha
  PRE ORYSA (rice), damage score: 7
Wheat [12]; spray amount 200 g/ha, Table 5
  TRZAW (wheat) damage, scale of 0-10: 0
Maize [13]; spray amount 200 g/ha, Table 5
  ZEAMX (maize) damage, scale of 0-10: 1
Rice [14]; spray amount 200 g/ha, Table 5
  ORYSA (rice) damage, scale of 0-10: 3

## COC(=O)c1nc(C2(C)CC(Br)=NO2)cc(N)c1Cl (centres unmarked) [Compound 53, methyl 4-amino-3-chloro-6-(3-bromo-5-methyl-4,5-dihydroisoxazol-5-yl)picolinate]
[1]; [15]
  ABUTH (Abutilon theophrasti Medicus) herbicidal efficacy, scale of 0-10: 6
Xanthium strumarium [2]; [15]
  XANST (Xanthium strumarium) herbicidal efficacy, scale of 0-10: 9
Quamoclit pennata [3]; [15]
  IPOAN (Quamoclit pennata) herbicidal efficacy, scale of 0-10: 4
Aeschynomene indica [4]; [15]
  AESIN (Aeschynomene indica) herbicidal efficacy, scale of 0-10: 9
[5]; Table 4, 200 g/ha
  PRE ABUTH (Abutilon theophrasti Medicus), efficacy score: 10
Xanthium strumarium [6]; Table 4, 200 g/ha
  PRE XANST (Xanthium strumarium), efficacy score: 9
Quamoclit pennata [7]; Table 4, 200 g/ha
  PRE IPOAN (Quamoclit pennata), efficacy score: 6
Aeschynomene indica [8]; Table 4, 200 g/ha
  PRE AESIN (Aeschynomene indica), efficacy score: 10
Wheat [9]; Table 4, 200 g/ha
  PRE TRZAW (wheat), damage score: 0
Maize [10]; Table 4, 200 g/ha
  PRE ZEAMX (maize), damage score: 0
Rice [11]; Table 4, 200 g/ha
  PRE ORYSA (rice), damage score: 0
Wheat [12]; [16]
  TRZAW (wheat) damage, scale of 0-10: 1
Maize [13]; [16]
  ZEAMX (maize) damage, scale of 0-10: 0
Rice [14]; [16]
  ORYSA (rice) damage, scale of 0-10: 0
